# Target: T1, human thyroid receptor beta ligand-binding domain (LBD) (Homo sapiens, UniProt P10828)
# T1 construct: purchased Invitrogen
# T1 sequence (P10828 217-461 limits assumed): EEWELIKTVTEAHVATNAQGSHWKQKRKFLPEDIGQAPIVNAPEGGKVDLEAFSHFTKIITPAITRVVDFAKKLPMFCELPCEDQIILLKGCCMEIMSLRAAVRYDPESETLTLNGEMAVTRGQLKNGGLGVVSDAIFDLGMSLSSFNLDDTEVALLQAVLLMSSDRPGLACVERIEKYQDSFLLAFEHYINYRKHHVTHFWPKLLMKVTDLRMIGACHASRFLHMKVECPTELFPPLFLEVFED
# Assay: THR Biochemical Assay (Assay 1): TR-FRET thyroid receptor beta coactivator assay
# Details: GST-tagged THR-beta LBD 1 nM, fluorescein SRC2-2 coactivator peptide 200 nM, 1 hr at rt, TR-FRET ratio 520:495; read-out: Assay 1 (EC50, THR-beta agonist activity)
# Source text: The TR-FRET thyroid receptor beta coactivator assay was used with slight, optimized modifications of the manufacturer's protocol (Invitrogen). The assay uses a terbium-labeled anti-GST antibody, a glutathione-S-transferase (GST) tagged human thyroid receptor, beta or alpha, ligand-binding domain (LBD), and a fluorescein labeled SRC2-2 coactivator peptide. The antibody interacts with the LBD, where the agonist also binds, resulting in increased affinity for the SRC2-2 coactivator peptide causing energy transfer […] the acceptor fluorophore and a FRET emission shift from 495 to 520 nm. The energy transfer was detected as an increase in the fluorescence emission of the fluorescein acceptor, and a decrease in the fluorescence emission of the terbium donor. The assay was performed in a 384-well black plate in a final volume of 20 μL. Serial dilution of various test agonists was performed in DMSO (1% final DMSO concentration) and added to the test plate. […] The TR-FRET was then measured on a Victor multilabel reader (Perkin Elmer) using an excitation wavelength of 340 nm with emission filters of 495 nm and 520 nm. The assay was quantified by expressing a ratio (520:495) of the intensities, and the resulting activation curves; EC50 values were generated using a sigmoidal dose response (variable slope) equation in GraphPad™ Prism 8.0.
row,EC50 [nM],Compound
1,< 50,"CC1CCc2c(Oc3c(Cl)cc(-n4nc(N)c(=O)[nH]c4=O)cc3Cl)n[nH]c(=O)c21 (single isomer, unassigned) [Compound 1a, 6-amino-2-(3,5-dichloro-4-((7-methyl-1-oxo-2,5,6,7-tetrahydro-1H-cyclopenta[d]pyridazin-4-yl)oxy)phenyl)-1,2,4-triazine-3,5(2H,4H)-dione]"
2,50 to 250,"CC1CCc2c(Oc3c(Cl)cc(-n4nc(N)c(=O)[nH]c4=O)cc3Cl)n[nH]c(=O)c21 (single isomer, unassigned) [Compound 1b, 6-amino-2-(3,5-dichloro-4-((7-methyl-1-oxo-2,5,6,7-tetrahydro-1H-cyclopenta[d]pyridazin-4-yl)oxy)phenyl)-1,2,4-triazine-3,5(2H,4H)-dione]"

# Reference: patent US11858913B2, “Bicyclic pyridazinones and methods of use thereof” (ALIGOS THERAPEUTICS, INC., priority 2020, dated 2024)
